# Test results: ChEMBL document CHEMBL1141013, “Novel oxime and oxime ether derivatives of 12,14-dichlorodehydroabietic acid: design, synthesis, and BK channel-opening activity” (Bioorg Med Chem Lett, 2008)
# Target: Calcium-activated potassium channel subunit alpha-1 (Homo sapiens) (UniProt Q12791)
# Assay: Activation of human BKalpha channel expressed in CHOK1 cells assessed as increase in ionic current at 30 uM by patch clamp method relative to control
# Format: cell-based
# Details: CHO-K1
# Chain of Calcium-activated potassium channel subunit alpha-1 (Homo sapiens) (Q12791 whole entry): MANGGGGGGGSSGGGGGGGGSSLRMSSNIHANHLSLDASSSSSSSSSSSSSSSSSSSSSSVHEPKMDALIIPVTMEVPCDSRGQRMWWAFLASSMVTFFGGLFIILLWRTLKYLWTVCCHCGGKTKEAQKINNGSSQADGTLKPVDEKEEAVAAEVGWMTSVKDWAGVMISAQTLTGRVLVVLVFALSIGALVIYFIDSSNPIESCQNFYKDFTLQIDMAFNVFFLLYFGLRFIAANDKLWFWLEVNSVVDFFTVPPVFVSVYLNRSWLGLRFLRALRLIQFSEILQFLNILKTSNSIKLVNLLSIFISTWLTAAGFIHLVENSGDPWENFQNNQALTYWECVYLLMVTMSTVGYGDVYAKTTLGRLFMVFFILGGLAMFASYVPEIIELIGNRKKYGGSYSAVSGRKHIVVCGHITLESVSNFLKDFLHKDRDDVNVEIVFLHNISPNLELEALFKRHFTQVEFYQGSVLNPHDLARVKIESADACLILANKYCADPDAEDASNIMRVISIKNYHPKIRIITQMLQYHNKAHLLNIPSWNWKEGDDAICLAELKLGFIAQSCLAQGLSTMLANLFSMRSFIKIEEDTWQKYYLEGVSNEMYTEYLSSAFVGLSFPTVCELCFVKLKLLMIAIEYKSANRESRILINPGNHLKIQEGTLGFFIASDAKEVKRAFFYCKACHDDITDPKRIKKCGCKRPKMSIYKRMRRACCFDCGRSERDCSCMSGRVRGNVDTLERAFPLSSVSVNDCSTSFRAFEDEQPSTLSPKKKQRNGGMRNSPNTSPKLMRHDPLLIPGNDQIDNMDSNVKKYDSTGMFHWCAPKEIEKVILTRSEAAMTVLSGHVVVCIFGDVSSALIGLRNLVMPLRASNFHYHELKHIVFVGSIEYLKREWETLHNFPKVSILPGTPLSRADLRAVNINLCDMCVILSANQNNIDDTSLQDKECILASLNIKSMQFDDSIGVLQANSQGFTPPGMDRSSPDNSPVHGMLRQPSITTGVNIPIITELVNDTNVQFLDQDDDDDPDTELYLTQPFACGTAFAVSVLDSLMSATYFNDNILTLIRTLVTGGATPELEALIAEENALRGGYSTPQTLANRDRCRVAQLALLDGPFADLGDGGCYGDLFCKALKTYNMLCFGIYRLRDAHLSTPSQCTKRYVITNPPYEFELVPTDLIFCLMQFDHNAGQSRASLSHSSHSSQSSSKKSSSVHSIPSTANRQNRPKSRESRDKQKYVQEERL
row,Activity [%],Structure (SMILES)
1,410,CO/N=C1\C[C@H]2[C@](C)(C(=O)O)CCC[C@]2(C)c2cc(Cl)c(C(C)C)c(Cl)c21
2,325,O=c1[nH]c2cc(C(F)(F)F)ccc2n1-c1cc(C(F)(F)F)ccc1O
3,242,CC(C)c1c(Cl)cc2c(c1Cl)/C(=N/O)C[C@H]1[C@](C)(C(=O)O)CCC[C@]21C
4,566,C=CCO/N=C1\C[C@H]2[C@](C)(C(=O)O)CCC[C@]2(C)c2cc(Cl)c(C(C)C)c(Cl)c21
5,425,C#CCO/N=C1\C[C@H]2[C@](C)(C(=O)O)CCC[C@]2(C)c2cc(Cl)c(C(C)C)c(Cl)c21
